The source of these data is ChEMBL document CHEMBL1201862, “PubChem BioAssay data set” (2004).

SMILES strings stand for the structures. Active and inactive are the calls of the source.

One experiment concerns the target Melanocortin receptor 4 (Homo sapiens, UniProt P32245). Briefly: inhibitors of MC4R cAMP signaling – cell-based, TR-FRET, biased antagonists, dose response (AID 602298).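 Also: antagonist potency against agonist-stimulated cAMP production.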 In kind it is functional. In general terms: TR-FRET usually uses a lanthanide donor and a delayed reading to cut background.
Experiment [1] concerns the target Glycogen synthase kinase-3 beta (Homo sapiens, UniProt P49841). The experiment in a line: Inhibition of Human GSK-3 beta Activity Measured in Biochemical System Using Microfluidics - 2063-05_Inhibitor_Dose_DryPowder_Activity_Set2. [Related pubchem assays (depositor defined):AID2709].
Experiment [2] is described as follows: viability of PTEN-deleted HCT116 cells – cell-based, HCT116 PTEN knockout, dose response (AID 1047).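 Also: HCT116 colon tumor cells with PTEN knocked out; cells exposed to compound for 60 hours before readout; potency for loss of cell viability measured by luminescence.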 Type of experiment: functional.
Experiment [3] addresses Glycogen synthase kinase-3 alpha (Homo sapiens, UniProt P49840). Briefly: Inhibition of Human GSK-3 alpha Activity Measured in Biochemical System Using Microfluidics - 2063-06_Inhibitor_Dose_DryPowder_Activity_Set2. [Related pubchem assays (depositor defined):AID2709].
Experiment [4] has as its target Dual specificity tyrosine-phosphorylation-regulated kinase 1A (Rattus norvegicus, UniProt Q63470). Type of experiment: biochemical, Homo sapiens.
The target of experiment [5] is Dual specificity protein kinase CLK1 (Homo sapiens, UniProt P49759). Briefly: inhibition of human CLK1 activity – biochemical, cherry-picked samples, selectivity assay for Dyrk1A inhibitor project, dose response (AID 588811).
Experiment [6] can be described thus: viability of HCT116 lacking mutant beta-catenin – cell-based, human colon tumor, dose response (AID 1045).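 Also: HCT116 colon tumor cells with beta catenin knocked out; cells exposed to compound for 60 hours.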 Type of experiment: functional.
Experiment [7] in a line: cAMP pathway inhibition in counterscreen cell line – TR-FRET cAMP detection, counter-screen for MC4R biased antagonist project, dose response (AID 602305).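 Also: U2OS cells stimulated with forskolin near its EC80 as the cAMP inducer; potency is for inhibition of forskolin-stimulated cAMP signaling.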 Type of experiment: functional, cell-based. (A counterscreen serves to expose hits that act by an unwanted route or on another target.)
Another experiment has as its target T1, Hexokinase-1 (Homo sapiens, UniProt P19367).
T1 sequence (P19367 whole entry): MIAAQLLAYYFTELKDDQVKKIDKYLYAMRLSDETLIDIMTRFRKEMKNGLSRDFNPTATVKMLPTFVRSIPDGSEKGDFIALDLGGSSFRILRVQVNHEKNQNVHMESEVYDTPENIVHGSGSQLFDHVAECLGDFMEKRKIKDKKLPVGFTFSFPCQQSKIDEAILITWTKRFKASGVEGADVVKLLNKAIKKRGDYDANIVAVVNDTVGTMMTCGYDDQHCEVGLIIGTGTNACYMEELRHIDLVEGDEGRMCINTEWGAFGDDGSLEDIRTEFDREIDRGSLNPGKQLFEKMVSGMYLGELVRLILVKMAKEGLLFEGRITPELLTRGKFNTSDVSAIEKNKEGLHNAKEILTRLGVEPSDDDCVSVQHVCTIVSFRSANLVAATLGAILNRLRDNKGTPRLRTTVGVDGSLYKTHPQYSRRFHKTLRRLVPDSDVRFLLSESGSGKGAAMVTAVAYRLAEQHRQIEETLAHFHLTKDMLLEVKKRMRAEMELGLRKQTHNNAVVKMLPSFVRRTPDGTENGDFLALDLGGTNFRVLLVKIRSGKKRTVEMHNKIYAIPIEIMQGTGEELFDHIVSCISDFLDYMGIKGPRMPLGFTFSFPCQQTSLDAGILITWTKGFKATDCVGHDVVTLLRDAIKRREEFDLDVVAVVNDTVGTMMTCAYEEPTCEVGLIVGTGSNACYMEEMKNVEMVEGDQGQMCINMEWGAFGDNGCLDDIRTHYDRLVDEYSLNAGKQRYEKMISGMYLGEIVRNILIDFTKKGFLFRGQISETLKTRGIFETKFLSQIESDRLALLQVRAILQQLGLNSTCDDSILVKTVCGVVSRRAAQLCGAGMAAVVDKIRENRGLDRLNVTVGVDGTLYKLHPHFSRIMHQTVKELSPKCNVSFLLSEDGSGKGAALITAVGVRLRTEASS
The experiment in a line: SAR analysis of small molecule inhibitors of hexokinase domain containing I (HKDC1) in the hexokinase 1 selectivity assay. [Related pubchem assays (depositor defined):AID493160, AID493190]. In kind it is functional.

In another experiment the target is T2, Hexokinase HKDC1 (Homo sapiens, UniProt Q2TB90).
T2 sequence (Q2TB90 whole entry): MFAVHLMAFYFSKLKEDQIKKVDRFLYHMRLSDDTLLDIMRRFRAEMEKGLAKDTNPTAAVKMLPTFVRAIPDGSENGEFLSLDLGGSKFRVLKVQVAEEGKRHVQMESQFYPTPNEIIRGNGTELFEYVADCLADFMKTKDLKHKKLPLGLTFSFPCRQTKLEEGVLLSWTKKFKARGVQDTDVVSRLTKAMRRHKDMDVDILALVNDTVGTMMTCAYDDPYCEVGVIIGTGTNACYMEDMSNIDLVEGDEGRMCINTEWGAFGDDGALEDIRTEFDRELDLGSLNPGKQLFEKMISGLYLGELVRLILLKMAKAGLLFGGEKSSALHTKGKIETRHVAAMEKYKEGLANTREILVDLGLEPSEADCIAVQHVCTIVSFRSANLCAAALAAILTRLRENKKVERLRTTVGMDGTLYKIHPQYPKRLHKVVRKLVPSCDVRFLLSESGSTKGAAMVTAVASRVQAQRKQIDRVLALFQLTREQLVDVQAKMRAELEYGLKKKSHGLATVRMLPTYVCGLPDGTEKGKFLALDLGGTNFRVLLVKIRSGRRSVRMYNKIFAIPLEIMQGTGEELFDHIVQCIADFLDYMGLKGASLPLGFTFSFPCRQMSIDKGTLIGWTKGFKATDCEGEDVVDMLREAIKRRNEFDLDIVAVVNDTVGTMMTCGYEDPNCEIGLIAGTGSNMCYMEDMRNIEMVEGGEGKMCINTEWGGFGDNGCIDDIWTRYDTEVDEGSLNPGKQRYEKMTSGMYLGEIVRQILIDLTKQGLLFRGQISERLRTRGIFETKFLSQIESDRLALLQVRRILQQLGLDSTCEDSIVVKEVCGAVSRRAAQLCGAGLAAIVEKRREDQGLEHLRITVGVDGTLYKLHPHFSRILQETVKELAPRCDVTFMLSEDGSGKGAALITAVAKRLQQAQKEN
Briefly: SAR analysis of small molecule inhibitors of hexokinase domain containing I (HKDC1). [Related pubchem assays (depositor defined):AID493160, AID493190]. In kind it is functional.

Experiment [8] deals with H4. The experiment in a line: Inhibitors of Prion Protein 5' UTR mRNA Measured in Cell-Based System Using Plate Reader - 2078-01_Inhibitor_Dose_DryPowder_Activity. [Related pubchem assays (depositor defined):AID488894]. The conditions noted are these: Homo sapiens. In kind it is functional.
Experiment [9] in a line: HEK-293T viability loss, compound-treated – cell-based, uHTS hits, cytotoxicity control for B/T-cell NF-kB inhibitor project, dose response (AID 489019).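 Also: IC50 reflects cytotoxicity as loss of cell viability.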 In kind it is functional.
Experiment [10] is described as follows: blockers of bursicon-stimulated LGR2 cAMP reporter – cell-based, HEK293, CRE-luciferase reporter, cherry pick, set 2, dose response (AID 743343).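 Also: transfected cells were stimulated with diluted bursicon conditioned medium after compound addition.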 Type of experiment: functional. (A reporter such as luciferase makes a cellular process visible.)
A short description of experiment [11]: off-target signal loss in HeLa-CEM21 co-culture – HeLa F-luc CTL cells, cherry-picked, counter-screen for HIV-1 Env fusion inhibitor project, dose response (AID 652040).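 Also: potency for signal decrease marking cytotoxic or nonspecific inhibition.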 In kind it is functional, cell-based.
Experiment [12] is described as follows: blockers of HIV-1 envelope-mediated cell-cell fusion – cherry-pick, dose response (AID 652057). In kind it is functional, cell-based.
The nature of experiment [13]: blockade of melanocortin 4 receptor signaling – cell-based, plate reader, cherry pick, counter-screen for LGR2 antagonist project, dose response (AID 743444).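 Also: transfected HEK 293 cells stimulated with alpha-MSH peptide; potency of inhibitors of the alpha-MSH evoked signal.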 Type of experiment: functional.
For experiment [14], the system named is H4. Briefly: inhibitors of control reporter signal in H4 cells – cell-based, plate reader, dry powder samples, counter-screen for prion reporter project, dose response (AID 540255). Type of experiment: functional. To be noted: Homo sapiens.
The target in experiment [15] is Luciferin 4-monooxygenase (Photinus pyralis, UniProt P08659). The experiment in a line: inhibition of purified Photinus pyralis luciferase – biochemical, dry powder samples, plate reader, dose response (AID 588451).
Experiment [16] is described as follows: blockers of HIV-1 ZM109 envelope-driven cell-cell fusion – HeLa effector, CEM target cells, luciferase, cherry-pick, dose response (AID 652058).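 Also: luciferase signal from HIV-1 Env mediated cell-cell fusion of effector and target cells.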 Type of experiment: functional, cell-based.
Experiment [17] concerns H4. Briefly: Amyloid Precursor 5' UTR neuroblastoma cell reporter line Measured in Cell-Based System Using Plate Reader - 2078-04_Inhibitor_Dose_DryPowder_Activity. [Related pubchem assays (depositor defined):AID488894]. Type of experiment: functional. The conditions noted are these: Homo sapiens.
A short description of experiment [18]: Luminescence-based counterscreen assay for KLF5 inhibitors: dose response cell-based high throughput screening assay to identify cytotoxic compounds using the IEC-6 intestinal epithelial cell line. [Related pubchem assays: 1700 (Primary screen.), 1834 (Confirmation screen.), 1858 (Summary AID.), 1905 (Counterscreen.)]. Type of experiment: functional.
The target of a further experiment is Paired box protein Pax-8 (Homo sapiens, UniProt Q06710). The experiment in a line: PAX8 transcriptional activity inhibition in RMG-I – RMG-I cells, luciferase, cherry-pick, dose response (AID 687027).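 Also: luciferase reporter driven by Pax8 target thyroperoxidase promoter measured by SteadyGlo luminescence.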 In kind it is functional, cell-based.
For the next experiment, the system named is Jurkat. The experiment in a line: blockers of NF-kB activation in T cells – Jurkat, luciferase reporter, luminescence, B- and T-cell, dose response (AID 489004).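 Also: NF-kB luciferase reporter Jurkat cells stimulated with PMA plus ionomycin.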 In kind it is functional, cell-based. The conditions noted are these: Homo sapiens.
Experiment [19] can be described thus: HIV-1 AD8 envelope cell-cell fusion blockers – cherry-pick, dose response (AID 652062).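 Also: luciferase signal from cell-cell fusion driven by HIV-1 clade B AD8 Env; potency is for inhibitors of fusion seen as a drop in luminescence.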 Type of experiment: functional, cell-based.
For experiment [20], the target named is Benomyl/methotrexate resistance protein (Candida albicans, UniProt P28873). The experiment in a line: Candida albicans Mdr1 pump inhibition curves – singleplex, Cherry Pick1 hits, dose response (AID 588608). Type of experiment: functional.
Experiment [21] concerns the target Multidrug resistance protein CDR1 (Candida albicans, UniProt P43071). The experiment in a line: Candida albicans Cdr1 pump inhibition curves – singleplex, Cherry Pick2 set, dose response (AID 623996). In kind it is functional. The conditions noted are these: read-out: EC50_MICROM.
The target of experiment [22] is Platelet-activating factor acetylhydrolase 2, cytoplasmic (Mus musculus, UniProt Q8VDG7). The experiment in a line: Late stage assay provider results from the probe development effort to identify inhibitors of PAFAH2: Fluorescence-based biochemical gel-based Activity-Based Protein Profiling (ABPP) IC50. [Related pubchem assays (depositor defined):AID492956, AID492969, AID493030].

Paired box protein Pax-8, sequence (Q06710 whole entry): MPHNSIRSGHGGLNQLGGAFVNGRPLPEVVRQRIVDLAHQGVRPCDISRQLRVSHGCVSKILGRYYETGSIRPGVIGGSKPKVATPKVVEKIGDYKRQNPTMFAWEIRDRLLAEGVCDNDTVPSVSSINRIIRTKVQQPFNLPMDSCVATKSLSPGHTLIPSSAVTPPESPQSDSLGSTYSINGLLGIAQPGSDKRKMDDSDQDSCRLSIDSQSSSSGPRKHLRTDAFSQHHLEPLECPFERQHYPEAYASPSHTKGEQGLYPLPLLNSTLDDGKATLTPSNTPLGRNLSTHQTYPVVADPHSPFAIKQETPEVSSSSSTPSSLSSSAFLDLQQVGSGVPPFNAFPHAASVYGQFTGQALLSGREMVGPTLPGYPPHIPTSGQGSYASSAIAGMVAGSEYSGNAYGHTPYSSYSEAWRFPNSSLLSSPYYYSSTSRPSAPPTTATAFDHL
Luciferin 4-monooxygenase, sequence (P08659 whole entry, the tested form may be a part): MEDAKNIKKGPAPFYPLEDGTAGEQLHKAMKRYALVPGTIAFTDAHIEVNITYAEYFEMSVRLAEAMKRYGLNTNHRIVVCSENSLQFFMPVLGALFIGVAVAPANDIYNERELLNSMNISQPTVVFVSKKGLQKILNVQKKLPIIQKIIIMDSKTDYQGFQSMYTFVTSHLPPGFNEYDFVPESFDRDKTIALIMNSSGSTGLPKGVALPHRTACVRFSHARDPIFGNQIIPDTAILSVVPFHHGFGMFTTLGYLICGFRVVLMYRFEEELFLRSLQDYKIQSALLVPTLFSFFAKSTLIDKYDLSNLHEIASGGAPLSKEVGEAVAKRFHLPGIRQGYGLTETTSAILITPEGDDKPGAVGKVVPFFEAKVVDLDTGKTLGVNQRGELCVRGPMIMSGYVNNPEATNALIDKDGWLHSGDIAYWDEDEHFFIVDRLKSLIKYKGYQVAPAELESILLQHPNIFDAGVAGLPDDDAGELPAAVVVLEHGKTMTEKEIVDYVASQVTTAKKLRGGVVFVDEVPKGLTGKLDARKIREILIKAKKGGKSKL
Benomyl/methotrexate resistance protein, sequence (P28873 whole entry): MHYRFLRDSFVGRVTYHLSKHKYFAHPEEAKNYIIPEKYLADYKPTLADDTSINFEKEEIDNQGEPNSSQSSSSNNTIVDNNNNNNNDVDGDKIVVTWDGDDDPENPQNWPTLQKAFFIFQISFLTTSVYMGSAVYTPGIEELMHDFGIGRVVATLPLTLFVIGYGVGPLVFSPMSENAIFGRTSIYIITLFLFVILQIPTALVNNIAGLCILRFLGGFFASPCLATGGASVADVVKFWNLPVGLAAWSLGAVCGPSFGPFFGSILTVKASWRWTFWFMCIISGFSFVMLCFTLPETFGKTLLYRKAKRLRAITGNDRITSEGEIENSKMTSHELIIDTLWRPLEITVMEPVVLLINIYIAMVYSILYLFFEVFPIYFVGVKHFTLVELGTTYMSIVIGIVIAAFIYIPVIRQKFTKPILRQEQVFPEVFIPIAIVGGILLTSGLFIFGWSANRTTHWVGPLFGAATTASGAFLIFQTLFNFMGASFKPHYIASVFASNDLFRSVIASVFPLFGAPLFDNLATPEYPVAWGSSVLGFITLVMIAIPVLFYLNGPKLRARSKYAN
Dual specificity protein kinase CLK1, sequence (P49759 whole entry): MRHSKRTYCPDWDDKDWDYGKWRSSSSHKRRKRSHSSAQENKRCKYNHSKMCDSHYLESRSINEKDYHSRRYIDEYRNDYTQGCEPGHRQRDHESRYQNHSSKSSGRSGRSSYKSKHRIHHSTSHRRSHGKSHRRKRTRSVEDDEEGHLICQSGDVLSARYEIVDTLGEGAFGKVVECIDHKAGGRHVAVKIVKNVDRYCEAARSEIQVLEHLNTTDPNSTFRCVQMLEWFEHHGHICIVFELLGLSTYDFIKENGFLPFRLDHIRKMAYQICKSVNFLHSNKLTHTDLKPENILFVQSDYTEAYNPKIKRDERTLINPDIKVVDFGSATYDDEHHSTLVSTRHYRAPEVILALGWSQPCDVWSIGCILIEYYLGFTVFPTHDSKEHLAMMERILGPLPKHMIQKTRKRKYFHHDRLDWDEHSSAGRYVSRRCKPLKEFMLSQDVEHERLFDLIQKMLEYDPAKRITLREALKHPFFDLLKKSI
Melanocortin receptor 4, sequence (P32245 whole entry): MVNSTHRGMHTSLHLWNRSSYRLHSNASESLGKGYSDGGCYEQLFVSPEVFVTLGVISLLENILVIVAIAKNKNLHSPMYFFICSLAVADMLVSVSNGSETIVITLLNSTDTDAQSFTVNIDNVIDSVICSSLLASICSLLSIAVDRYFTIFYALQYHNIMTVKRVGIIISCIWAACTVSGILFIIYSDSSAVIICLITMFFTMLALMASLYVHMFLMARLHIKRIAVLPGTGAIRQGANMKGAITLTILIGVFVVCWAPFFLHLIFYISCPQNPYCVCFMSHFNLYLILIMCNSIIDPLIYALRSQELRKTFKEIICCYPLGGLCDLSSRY
Glycogen synthase kinase-3 alpha, sequence (P49840 whole entry): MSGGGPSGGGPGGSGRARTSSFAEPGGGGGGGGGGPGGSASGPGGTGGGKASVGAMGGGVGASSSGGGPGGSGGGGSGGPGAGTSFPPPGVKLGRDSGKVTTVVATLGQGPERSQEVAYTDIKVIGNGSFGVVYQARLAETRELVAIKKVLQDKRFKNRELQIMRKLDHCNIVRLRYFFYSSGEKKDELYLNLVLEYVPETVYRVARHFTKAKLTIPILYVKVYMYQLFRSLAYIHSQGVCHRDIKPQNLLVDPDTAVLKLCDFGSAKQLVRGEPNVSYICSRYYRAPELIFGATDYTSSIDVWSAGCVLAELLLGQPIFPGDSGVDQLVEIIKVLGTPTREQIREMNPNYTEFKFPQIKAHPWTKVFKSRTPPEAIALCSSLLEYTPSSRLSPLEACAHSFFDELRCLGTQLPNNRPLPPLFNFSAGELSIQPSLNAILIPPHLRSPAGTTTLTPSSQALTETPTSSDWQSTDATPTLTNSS
Multidrug resistance protein CDR1, sequence (P43071 whole entry, looked up): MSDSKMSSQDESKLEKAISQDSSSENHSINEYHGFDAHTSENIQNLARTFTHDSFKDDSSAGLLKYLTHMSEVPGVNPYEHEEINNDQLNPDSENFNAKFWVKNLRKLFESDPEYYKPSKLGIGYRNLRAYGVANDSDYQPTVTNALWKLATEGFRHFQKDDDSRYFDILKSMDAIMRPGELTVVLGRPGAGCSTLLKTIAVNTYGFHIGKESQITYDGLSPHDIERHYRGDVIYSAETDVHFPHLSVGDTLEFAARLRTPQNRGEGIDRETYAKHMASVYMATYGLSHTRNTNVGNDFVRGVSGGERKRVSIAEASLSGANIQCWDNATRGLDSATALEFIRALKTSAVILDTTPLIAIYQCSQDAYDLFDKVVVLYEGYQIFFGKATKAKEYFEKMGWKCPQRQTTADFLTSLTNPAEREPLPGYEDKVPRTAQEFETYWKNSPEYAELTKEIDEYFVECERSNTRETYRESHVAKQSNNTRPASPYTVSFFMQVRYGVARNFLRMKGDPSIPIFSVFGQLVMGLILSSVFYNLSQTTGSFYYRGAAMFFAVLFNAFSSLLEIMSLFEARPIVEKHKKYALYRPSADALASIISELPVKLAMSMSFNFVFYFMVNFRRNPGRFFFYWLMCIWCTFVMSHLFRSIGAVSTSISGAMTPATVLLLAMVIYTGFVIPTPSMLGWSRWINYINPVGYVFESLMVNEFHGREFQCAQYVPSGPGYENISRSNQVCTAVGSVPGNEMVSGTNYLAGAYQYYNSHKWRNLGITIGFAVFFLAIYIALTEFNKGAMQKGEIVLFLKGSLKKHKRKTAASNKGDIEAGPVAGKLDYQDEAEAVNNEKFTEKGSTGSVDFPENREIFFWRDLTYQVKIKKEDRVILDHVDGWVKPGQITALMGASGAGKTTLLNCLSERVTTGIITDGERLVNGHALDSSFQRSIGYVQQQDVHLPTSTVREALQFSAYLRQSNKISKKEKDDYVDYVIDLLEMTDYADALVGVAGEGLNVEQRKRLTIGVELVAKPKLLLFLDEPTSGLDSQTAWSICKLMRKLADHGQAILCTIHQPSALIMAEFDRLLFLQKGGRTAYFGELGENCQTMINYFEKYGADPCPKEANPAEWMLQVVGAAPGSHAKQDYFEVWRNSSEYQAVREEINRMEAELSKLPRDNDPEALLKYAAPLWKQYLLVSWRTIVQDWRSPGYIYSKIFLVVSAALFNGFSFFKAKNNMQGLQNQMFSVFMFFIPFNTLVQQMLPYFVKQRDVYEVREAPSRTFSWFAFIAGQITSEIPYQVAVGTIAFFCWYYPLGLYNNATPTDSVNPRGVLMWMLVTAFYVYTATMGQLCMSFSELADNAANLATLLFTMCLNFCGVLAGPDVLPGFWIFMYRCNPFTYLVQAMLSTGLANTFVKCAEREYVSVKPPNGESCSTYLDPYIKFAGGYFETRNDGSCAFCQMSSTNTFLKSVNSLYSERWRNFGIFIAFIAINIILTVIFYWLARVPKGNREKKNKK
Glycogen synthase kinase-3 beta, sequence (P49841 whole entry): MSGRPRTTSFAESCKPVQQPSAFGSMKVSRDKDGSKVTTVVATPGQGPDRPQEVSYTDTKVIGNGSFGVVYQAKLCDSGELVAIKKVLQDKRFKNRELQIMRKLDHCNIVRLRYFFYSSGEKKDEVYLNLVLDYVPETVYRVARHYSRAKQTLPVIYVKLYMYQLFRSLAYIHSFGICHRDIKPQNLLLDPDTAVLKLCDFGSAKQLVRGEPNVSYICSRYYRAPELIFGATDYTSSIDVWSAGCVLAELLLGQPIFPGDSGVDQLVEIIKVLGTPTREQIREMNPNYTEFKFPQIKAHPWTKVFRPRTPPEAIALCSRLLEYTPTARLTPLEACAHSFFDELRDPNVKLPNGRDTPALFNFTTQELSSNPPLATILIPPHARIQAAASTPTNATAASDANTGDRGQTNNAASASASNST

In general, IC50 refers to the point on the concentration scale where inhibition reaches its midpoint. A word on the AC50: it is the midpoint of the concentration-response curve, whichever way the signal moves. Consider `CCOC(=O)c1ccc2ncc(C(=O)OCC)c(Nc3ccc(N4CCOCC4)cc3)c2c1`, for which the IC50 is 8.67 µM (active) on Melanocortin receptor 4 and > 64.6 µM (inactive) in experiment [7]. The AC50 is 1.16 µM (active) in experiment [1], 3.56 µM (active) in [3], 257 nM (active) in experiment [4] and 227 nM (active) in experiment [5]. Further, the EC50 in [2] was 18.5 µM (active); in [6], 21.4 µM (active).
As to `Cc1ccccc1/C=C\c1nc2ccccc2c(=O)n1Cc1ccccc1`, the IC50 at Hexokinase-1 and at Hexokinase HKDC1 was > 80 µM (inactive) each time.
For `O=C(Nc1cccc(C(=O)O)c1)Nc1ccc2c(c1)OCO2`, the AC50 with H4 [8] is 333 nM (active); in [10] it was 1.53 µM (active); in experiment [11], 1.81 µM (active); in experiment [12], 605 nM (active); in experiment [13], 1.47 µM (active); in the experiment on H4 [14] it was 1.97 µM (active). Besides, the AC50 in [15] is 3.34 µM (active); in experiment [16] it was 5.37 µM (active); with H4 [17], 145 nM (active); on Paired box protein Pax-8, 5.13 µM (active); in [19] it was 2.74 µM (active). In addition, the IC50 in [9] is > 80 µM (inactive); in [18], > 39.8 µM (not active); in the experiment on Jurkat, 1.77 µM (active).
On to `COc1ccc(S(=O)(=O)N(C)C[C@H]2Oc3c(NC(=O)NC4CCCCC4)cccc3C(=O)N([C@H](C)CO)C[C@@H]2C)cc1`, for which the EC50 is 10.1 µM (active) in [20] and 10.4 µM (active) in experiment [21].
Turning to `O=C(N1CCCC1)n1ncc(-c2ccc(Oc3ccccc3)cc2)n1`, in experiment [22], the IC50 is 2 nM (active).
